Earlier results in patent publication US20090186834A1, “DIPHENYLHETEROCYCLE CHOLESTEROL ABSORPTION INHIBITORS” (MICROBIA, INC., priority 2005, published 2009).

How the values were obtained:
[1] = test system: fat-SOluble vitamin absorption; conditions: in humans
[2] = test system: absorption of taurocholic acid; conditions: in vivo

## O=C1[C@H](CC[C@H](O)c2ccc(F)cc2)[C@@H](c2ccc(O)cc2)N1c1ccc(F)cc1 [ezetimibe, (3R,4S)-1-(4-fluorophenyl)-3-[(3S)-3-(4-fluorophenyl)-3-hydroxypropyl]-4-(4-hydroxyphenyl)azetidin-2-one]
[1]
  effect on fat-SOluble vitamin absorption: does not appear to affect
[2]
  inhibition of the absorption of taurocholic acid: does not inhibit
